Data as given in PubChem BioAssay AID651630 (Sanford-Burnham Center for Chemical Genomics, 2012).
pIC50: −log10 of the molar value. The source made the active and inactive calls.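 How the source made its calls: active means lipid-stain IC50 at or below a set limit, with nuclear-stain toxicity IC50 at least five times higher; inactive means the rest.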

How the values were obtained:
DAPI = experiment: triacylglycerol accumulation inhibitor potency, dose response, cell-based, panel, Nile Red and DAPI fluorescence, H9c2 (AID 651630); details: H9c2 cells, DAPI nuclear fluorescence (cytotoxicity counter-readout), oleic acid;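 further: cells exposed to compound overnight before fixation and staining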
TAG = experiment: as above; details: H9c2 cells, Nile Red TAG fluorescence, oleic acid

SMILES	IC50 cytotoxicity (DAPI nuclear signal decrease) (DAPI; mean of runs)	IC50 cytotoxicity (DAPI nuclear signal decrease) (DAPI; run 1) [µM]	IC50 cytotoxicity (DAPI nuclear signal decrease) (DAPI; run 2) [µM]	IC50 (TAG; mean of runs)	pIC50 (TAG; run 1)	pIC50 (TAG; run 2)	pIC50 (TAG; mean of runs)
COc1cc(C(CCN2CCCCC2)c2c(OC)cc(OC)c3c(-c4ccccc4)cc(=O)oc23)cc(OC)c1OC (centres undefined)	> 25 µM (inactive)	> 25	> 25	> 25 µM (inactive)	< 4.60	< 4.60	–
CCO[C@@H]1OC(C(=O)N2CCN(Cc3ccccc3)CC2)=C[C@H](c2ccc(C(F)(F)F)cc2)[C@H]1CCCO	> 25 µM (inactive)	> 25	> 25	–	4.95	4.94	4.94
CN(Cc1ccccc1)C(=O)c1ccc(Nc2nc(C(N)Cc3ccccc3)cs2)nc1 (centres undefined)	> 25 µM (inactive)	> 25	> 25	–	4.68	< 4.60	–
Cc1ccc(Oc2ccc(S(=O)(=O)N3CCOCC3)cc2C(N)=O)c(-n2nc3ccccc3n2)c1	> 25 µM (inactive)	> 25	> 25	> 25 µM (inactive)	< 4.60	< 4.60	–
Cc1cc(C)c2nc(-c3ccncc3)cc(C(=O)N3CCN(Cc4ccccc4Cl)CC3)c2c1	> 25 µM (inactive)	> 25	> 25	–	4.85	5.00	4.92
Cc1onc(-c2ccc(Cl)cc2Cl)c1-c1csc(N/N=C/c2ccccc2)n1	> 25 µM (inactive)	> 25	> 25	> 25 µM (inactive)	< 4.60	< 4.60	–
CNC(=O)c1ccc(-c2sc3nc(N4CCOCC4)c4c(c3c2N)CCCC4)o1	> 25 µM (inactive)	> 25	> 25	–	5.26	5.12	5.18
COc1ccc(-c2sc3ccc(N4CCOCC4)cc3c2C#CC(C)(C)O)cc1	> 25 µM (inactive)	> 25	> 25	> 25 µM (inactive)	< 4.60	< 4.60	–
O=C(/C=C/Sc1ccc(C(F)(F)F)cn1)c1ccccc1	–	21	> 25	> 25 µM (inactive)	< 4.60	< 4.60	–
CN(C)CCNC(=O)C(=O)Nc1ccc2c(c1)N(S(=O)(=O)c1cccs1)CCC2	> 25 µM (inactive)	> 25	> 25	> 25 µM (inactive)	< 4.60	< 4.60	–
COc1cc2c(cc1OC)C(C)N(C(=O)c1cc3c(C)cc(C)cc3[nH]1)CC2 (centres undefined)	> 25 µM (inactive)	> 25	> 25	–	5.02	5.06	5.04
COC(=O)C=C1CCC2C3CCC4=CC(=O)C(Br)CC4(C)C3C(=O)CC12C (centres undefined)	–	> 25	22.3	–	5.02	4.99	5.01
COc1ccc(CC(=O)Nc2ccc(-c3ccc4nnc(C)n4n3)cc2)cc1OC	> 25 µM (inactive)	> 25	> 25	16.5 µM (inactive)	4.82	4.75	–
CC(=O)O[C@H]1C(=O)[C@]2(C)[C@H]([C@H](OC(=O)c3ccccc3)[C@]3(O)C[C@H](OC(=O)[C@H](O)[C@@H](NC(=O)c4ccccc4)c4ccccc4)C(C)=C1C3(C)C)[C@]1(OC(C)=O)CO[C@@H]1C[C@@H]2O	> 25 µM (inactive)	> 25	> 25	> 25 µM (inactive)	< 4.60	< 4.60	–
Cc1cccc2cc(C#N)c(SCC(=O)NNC(=O)Cc3ccccc3)nc12	> 25 µM (inactive)	> 25	> 25	> 25 µM (inactive)	< 4.60	< 4.60	–
O=C1COc2ccc(C(=O)CSc3nc4ccccc4c(=O)n3-c3ccc(Cl)c(Cl)c3)cc2N1	18.1 µM (inactive)	18.4	17.8	–	4.85	4.87	4.86
CCCc1[nH]n(-c2ccc([N+](=O)[O-])cc2)c(=O)c1C=NCCc1c[nH]c2ccccc12	> 25 µM (inactive)	> 25	> 25	–	4.99	4.87	4.92
